# Assay results published in ChEMBL document CHEMBL1201862, “PubChem BioAssay data set” (2004).
#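 Assay format: 96-well plates, 48-hour exposure. GI50 marks 50% less growth.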 Activity calls are given as the source filed them. Rule as the data show it: active = GI50 up to about 1.1 µM and inactive = higher.
# What was measured:
# Experiment in all cases: NCI tumour cell line growth inhibition, 48 h
# [1] = tested on: Malme-3M
# [2] = tested on: RXF 393
# [3] = tested on: SK-MEL-2
# [4] = tested on: SF-268
# [5] = tested on: TK-10
# [6] = tested on: MDA-MB-435
# [7] = tested on: T47D
# [8] = tested on: Hs-578T
# [9] = tested on: OVCAR-4
# [10] = tested on: NCI-H460
# [11] = tested on: NCI-H522
# [12] = tested on: SK-MEL-28
# [13] = tested on: HT-29
# [14] = tested on: OVCAR-8
# [15] = tested on: U-251
# [16] = tested on: SK-MEL-5
# [17] = tested on: HL-60
# [18] = tested on: 786-0
# [19] = tested on: HOP-92
# [20] = tested on: NCI-H23
# [21] = tested on: MCF7
# [22] = tested on: LOX IMVI
# [23] = tested on: SR
# [24] = tested on: HCT-15
# [25] = tested on: KM12
# [26] = tested on: SF-539
# [27] = tested on: RPMI-8226
# [28] = tested on: OVCAR-5
# [29] = tested on: CAKI-1
# [30] = tested on: SW-620
# [31] = tested on: SNB-75
# [32] = tested on: CCRF-CEM
# [33] = tested on: SK-OV-3
# [34] = tested on: PC-3
# [35] = tested on: UACC-257
# [36] = tested on: M14
# [37] = tested on: NCI/ADR-RES
# [38] = tested on: ACHN
# [39] = tested on: SF-295
# [40] = tested on: COLO 205
# [41] = tested on: MOLT-4
# [42] = tested on: SNB-19
# [43] = tested on: A498
# [44] = tested on: EKVX
# [45] = tested on: UO-31
# [46] = tested on: MDA-N
# [47] = tested on: MDA-MB-231
# [48] = tested on: IGROV-1
# [49] = tested on: A549
# [50] = tested on: HCC 2998
# [51] = tested on: DU-145
# [52] = tested on: SN12C
# [53] = tested on: NCI-H226
# [54] = tested on: UACC-62
# [55] = tested on: K562
# [56] = tested on: OVCAR-3
# [57] = tested on: HCT-116
# [58] = tested on: HOP-62
compound,measurement,setting,value
C[C@]1(O)CC[C@H]2[C@@H]3CCc4cc(O)ccc4[C@H]3CC[C@@]21C,GI50,[1],0.353 µM (active)
same,GI50,[2],0.889 µM (active)
same,GI50,[3],0.773 µM (active)
same,GI50,[4],3.46 µM (inactive)
same,GI50,[5],0.826 µM (active)
same,GI50,[6],0.186 µM (active)
same,GI50,[7],38.5 µM (inactive)
same,GI50,[8],1.19 µM (inactive)
same,GI50,[9],> 100 µM (inactive)
same,GI50,[10],1.36 µM (inactive)
same,GI50,[11],0.991 µM (active)
same,GI50,[12],34.8 µM (inactive)
same,GI50,[13],6.7 µM (inactive)
same,GI50,[14],7.48 µM (inactive)
same,GI50,[15],4.03 µM (inactive)
same,GI50,[16],0.391 µM (active)
same,GI50,[17],0.362 µM (active)
same,GI50,[18],6.38 µM (inactive)
same,GI50,[19],6.95 µM (inactive)
same,GI50,[20],3.03 µM (inactive)
same,GI50,[21],0.665 µM (active)
same,GI50,[22],14.5 µM (inactive)
same,GI50,[23],0.21 µM (active)
same,GI50,[24],1.15 µM
same,GI50,[25],0.308 µM (active)
same,GI50,[26],0.356 µM (active)
same,GI50,[27],0.687 µM (active)
same,GI50,[28],8.02 µM (inactive)
same,GI50,[29],3.62 µM (inactive)
same,GI50,[30],0.568 µM (active)
same,GI50,[31],> 100 µM (inactive)
same,GI50,[32],2.37 µM (inactive)
same,GI50,[33],89.5 µM (inactive)
same,GI50,[34],1.87 µM (inactive)
same,GI50,[35],28.2 µM (inactive)
same,GI50,[36],1.18 µM (inactive)
same,GI50,[37],1.99 µM (inactive)
same,GI50,[38],16.6 µM (inactive)
same,GI50,[39],1.48 µM (inactive)
same,GI50,[40],7.35 µM (inactive)
same,GI50,[41],0.664 µM (active)
same,GI50,[42],92.3 µM (inactive)
same,GI50,[43],0.456 µM (active)
same,GI50,[44],1.32 µM (inactive)
same,GI50,[45],8.32 µM (inactive)
same,GI50,[46],0.186 µM (active)
same,GI50,[47],7.23 µM (inactive)
same,GI50,[48],0.735 µM (active)
same,GI50,[49],3.94 µM (inactive)
same,GI50,[50],0.233 µM (active)
c1ccc(CSCCC(SCc2ccccc2)SCc2ccccc2)cc1,GI50,[1],> 10 µM (inactive)
same,GI50,[2],> 10 µM (inactive)
same,GI50,[3],> 10 µM (inactive)
same,GI50,[51],> 10 µM (inactive)
same,GI50,[4],> 10 µM (inactive)
same,GI50,[5],> 10 µM (inactive)
same,GI50,[7],> 10 µM (inactive)
same,GI50,[8],> 10 µM (inactive)
same,GI50,[9],> 10 µM (inactive)
same,GI50,[10],> 10 µM (inactive)
same,GI50,[11],> 10 µM (inactive)
same,GI50,[12],> 10 µM (inactive)
same,GI50,[52],> 10 µM (inactive)
same,GI50,[13],> 10 µM (inactive)
same,GI50,[14],> 10 µM (inactive)
same,GI50,[53],> 10 µM (inactive)
same,GI50,[15],> 10 µM (inactive)
same,GI50,[16],> 10 µM (inactive)
same,GI50,[17],> 10 µM (inactive)
same,GI50,[54],> 10 µM (inactive)
same,GI50,[18],> 10 µM (inactive)
same,GI50,[19],9.66 µM (inactive)
same,GI50,[55],> 10 µM (inactive)
same,GI50,[20],> 10 µM (inactive)
same,GI50,[21],> 10 µM (inactive)
same,GI50,[22],> 10 µM (inactive)
same,GI50,[23],> 10 µM (inactive)
same,GI50,[24],> 10 µM
same,GI50,[25],> 10 µM (inactive)
same,GI50,[26],> 10 µM (inactive)
same,GI50,[27],> 10 µM (inactive)
same,GI50,[29],> 10 µM (inactive)
same,GI50,[30],> 10 µM (inactive)
same,GI50,[31],> 10 µM (inactive)
same,GI50,[32],> 10 µM (inactive)
same,GI50,[56],> 10 µM (inactive)
same,GI50,[57],> 10 µM (inactive)
same,GI50,[33],> 10 µM (inactive)
same,GI50,[34],> 10 µM (inactive)
same,GI50,[35],> 10 µM (inactive)
same,GI50,[36],> 10 µM (inactive)
same,GI50,[37],> 10 µM (inactive)
same,GI50,[38],> 10 µM (inactive)
same,GI50,[58],> 10 µM (inactive)
same,GI50,[39],> 10 µM (inactive)
same,GI50,[40],> 10 µM (inactive)
same,GI50,[41],> 10 µM (inactive)
same,GI50,[42],> 10 µM (inactive)
same,GI50,[43],> 10 µM (inactive)
same,GI50,[44],> 10 µM (inactive)
same,GI50,[45],> 10 µM (inactive)
same,GI50,[46],> 10 µM (inactive)
same,GI50,[47],> 10 µM (inactive)
same,GI50,[48],> 10 µM (inactive)
same,GI50,[49],> 10 µM (inactive)
same,GI50,[50],> 10 µM (inactive)
COc1cc([C@@H]2c3cc4c(cc3[C@@H](Nc3ccccc3C(=O)c3ccccc3)[C@H]3COC(=O)[C@H]23)OCO4)cc(OC)c1OC,GI50,[1],0.458 µM (active)
same,GI50,[2],0.459 µM (active)
same,GI50,[3],> 100 µM (inactive)
same,GI50,[51],1.82 µM (inactive)
same,GI50,[4],0.855 µM (active)
same,GI50,[5],> 100 µM (inactive)
same,GI50,[6],0.27 µM (active)
same,GI50,[7],> 100 µM (inactive)
same,GI50,[8],0.373 µM (active)
same,GI50,[9],> 27.2 µM (inactive)
same,GI50,[10],0.442 µM (active)
same,GI50,[11],0.31 µM (active)
same,GI50,[12],0.472 µM (active)
same,GI50,[52],1.9 µM (inactive)
same,GI50,[13],0.314 µM (active)
same,GI50,[14],0.47 µM (active)
same,GI50,[53],0.431 µM (active)
same,GI50,[15],0.362 µM (active)
same,GI50,[16],0.475 µM (active)
same,GI50,[17],0.212 µM (active)
same,GI50,[54],0.362 µM (active)
same,GI50,[18],0.618 µM (active)
same,GI50,[55],0.35 µM (active)
same,GI50,[20],0.668 µM (active)
same,GI50,[21],0.379 µM (active)
same,GI50,[22],0.313 µM (active)
same,GI50,[23],0.332 µM (active)
same,GI50,[24],0.444 µM
same,GI50,[25],0.3 µM (active)
same,GI50,[26],0.259 µM (active)
same,GI50,[27],0.381 µM (active)
same,GI50,[28],0.885 µM (active)
same,GI50,[29],0.741 µM (active)
same,GI50,[30],0.471 µM (active)
same,GI50,[31],0.849 µM (active)
same,GI50,[32],0.347 µM (active)
same,GI50,[56],0.785 µM (active)
same,GI50,[57],0.321 µM (active)
same,GI50,[34],0.622 µM (active)
same,GI50,[35],0.933 µM (active)
same,GI50,[36],0.729 µM (active)
same,GI50,[37],0.479 µM (active)
same,GI50,[38],0.535 µM (active)
same,GI50,[58],2.11 µM (inactive)
same,GI50,[39],0.376 µM (active)
same,GI50,[40],0.472 µM (active)
same,GI50,[41],0.38 µM (active)
same,GI50,[42],1.37 µM (inactive)
same,GI50,[43],0.149 µM (active)
same,GI50,[44],> 54.6 µM (inactive)
same,GI50,[45],0.776 µM (active)
same,GI50,[46],0.316 µM (active)
same,GI50,[47],1.81 µM (inactive)
same,GI50,[48],0.836 µM (active)
same,GI50,[49],0.753 µM (active)
same,GI50,[50],2.36 µM (inactive)
